# Biological target: cAMP and cAMP-inhibited cGMP 3',5'-cyclic phosphodiesterase 10A (Homo sapiens, UniProt Q9Y233)
# Experiment: PDE10A assay
# Method in brief: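 Scintillation proximity readout of [3H]cGMP hydrolysis (50 nM final substrate, 15 min) by 2 ng/well human PDE10A after 15 min compound preincubation at RT, pH 7.5 with MgCl2. Four-parameter logistic fit gave IC50, reported as pIC50.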
row,IC50 [nM],SMILES
1,853,"Cn1ncc(C(=O)N2CCC2)c1C(=O)Nc1cc(C2CCC2)n(C2CCCC2)n1 [Roche-Dataset for PDE10A, Compound 1088]"
2,7.17,"COCCNC(=O)c1cc2[nH]c(-c3ccccc3)nc2cc1NC(=O)c1cc(Br)c[nH]c1=O [Roche-Dataset for PDE10A, Compound 303]"
3,7.54,"Cc1nc(C(F)(F)F)n2nc(CCc3nc(N4CCCC4)nn3C)nc2c1C [Roche-Dataset for PDE10A, Compound 432]"
4,12,"COC[C@H]1CCCN1c1nc(CCc2nc3c(C)ncc(C)n3n2)n(C)n1 [Roche-Dataset for PDE10A, Compound 249]"
5,495,"O=C(NCCCc1noc(-c2ccccc2)n1)c1nc(C2CC2)cnc1Nc1cncnc1 [Roche-Dataset for PDE10A, Compound 181]"
6,4.91,"O=C(Nc1cc(-c2ccccn2)nn1CCc1ccccc1)c1nc(C2CC2)ccc1Nc1cncnc1 [US8470820, 17]"
7,0.6,"CCOc1cc(Cl)c(C)n2nc(CCc3nc(N4CCCC4)nn3C)nc12 [Roche-Dataset for PDE10A, Compound 266]"
8,747,"Cc1ncc(C)n2nc(/C=C/c3nc(N4CCCN4C)nn3C)nc12 [Roche-Dataset for PDE10A, Compound 911]"
9,2060,"Cc1cnc(C)n2nc(/C=C/c3nc(Br)nn3C)nc12 [Roche-Dataset for PDE10A, Compound 1128]"
10,680,"COc1c(C)cnc(CCc2nc(-c3ccccc3)cn2C)c1C [Roche-Dataset for PDE10A, Compound 197]"
11,81,"Cc1cc(Cl)cc2c(=O)[nH]c(CCc3nc(-c4ccccc4)cn3C)nc12 [Roche-Dataset for PDE10A, Compound 70]"
12,57,"Cn1cc(-c2ccccc2)nc1COc1ncc(C2CC2)nc1C(=O)NCc1ccccc1 [Roche-Dataset for PDE10A, Compound 59]"
13,3.44,"Cn1cc(-c2ccccc2)nc1CCc1nc2ccccc2nc1N1CCCC1 [Roche-Dataset for PDE10A, Compound 98]"
14,320,"C[C@@H](NC(=O)c1ccc(NC(=O)c2nc(C3CC3)ccc2Nc2cncnc2)s1)c1ccccc1 [Roche-Dataset for PDE10A, Compound 563]"
15,1080,"O=C(N[C@@H]1C[C@H]2CC[C@@H]1C2)c1nc(C2CC2)cnc1Nc1cncnc1 [Roche-Dataset for PDE10A, Compound 1126]"
16,24,"CC(C)Oc1cccc(NC(=O)c2nc(C3CC3)cnc2Nc2cncnc2)n1 [Roche-Dataset for PDE10A, Compound 917]"
17,858,"Cc1ncc(C)n2nc(CCc3nc(N4CC5CC4C5)nn3C)nc12 [Roche-Dataset for PDE10A, Compound 524]"
18,868,"CN(C)C(=O)c1cnn(Cc2ccccc2)c1C(=O)Nc1ccn2nc(N3CCOCC3)nc2c1 [Roche-Dataset for PDE10A, Compound 1136]"
19,9.47,"CC(C)Oc1cccc(NC(=O)c2nc(C3CC3)cnc2Nc2cncnc2)c1 [Roche-Dataset for PDE10A, Compound 721]"
20,49,"CC(=O)c1nn(C)cc1NC(=O)c1nc(C2CC2)cnc1Nc1cncnc1 [Roche-Dataset for PDE10A, Compound 1016]"
21,2670,"CCOC(=O)c1cnn(C)c1C(=O)Nc1cn(-c2ccccn2)cn1 [Roche-Dataset for PDE10A, Compound 960]"
22,0.69,"Cc1c(Cl)cc(OC(C)C)c2nc(CCc3nc(N4CCCC4)nn3C)nn12 [Roche-Dataset for PDE10A, Compound 223]"

row,IC50 [nM],SMILES
1,0.3,"Cn1ncc(C(=O)N2CCC2)c1C(=O)Nc1ccn2nc(-c3ccccc3OCCCF)nc2c1 [Roche-Dataset for PDE10A, Compound 11]"
2,2070,"O=C(NCCN1CCCC1=O)c1nc(C2CC2)cnc1Nc1cncnc1 [Roche-Dataset for PDE10A, Compound 779]"
3,987,"COc1c(C)cnc(/C=C/c2nc(-c3ccccc3)cn2C)c1C [Roche-Dataset for PDE10A, Compound 245]"
4,371,"Cn1cc(-c2ccccc2)nc1COc1cc(N2CCOCC2)nc(-c2ccn[nH]2)n1 [Roche-Dataset for PDE10A, Compound 108]"
5,570,"Cn1ncc(C(=O)O)c1C(=O)Nc1ccn2nc(-c3ccnc(F)c3)nc2c1 [Roche-Dataset for PDE10A, Compound 394]"
6,768,"O=C(NCc1ccncn1)c1nc(C2CC2)cnc1Nc1cncnc1 [Roche-Dataset for PDE10A, Compound 1017]"
7,0.9,"Cn1ncc(C(=O)N2CCC2)c1C(=O)Nc1ccn2nc(-c3cccc(OCCF)c3)nc2c1 [Roche-Dataset for PDE10A, Compound 76]"
8,0.71,"CC(C)(O)CNC(=O)c1cc(C#N)ccc1NC(=O)c1nc(C2CC2)cnc1Nc1cncnc1 [US8703768, 262]"
9,10000,"O=C(NC1CCS(=O)(=O)CC1)c1nc(C2CC2)cnc1Nc1cncnc1 [Roche-Dataset for PDE10A, Compound 1031]"
10,48,"CN1C(=O)c2ccc(NC(=O)c3nc(C4CC4)ccc3Nc3cncnc3)cc2C1=O [Roche-Dataset for PDE10A, Compound 849]"
11,16,"CCCc1cccc(NC(=O)c2nc(C3CC3)cnc2Nc2cncnc2)n1 [Roche-Dataset for PDE10A, Compound 963]"
12,21,"Cc1cc(C)n2nc(/C=C/c3nc(N4CCCC4)nn3C3CC3)nc2n1 [Roche-Dataset for PDE10A, Compound 350]"
13,7900,"Cc1cncc(CCc2nc(N3CCCC3)nn2C)n1 [Roche-Dataset for PDE10A, Compound 989]"
14,15,"Cc1cccc2c(=O)[nH]c(CCc3nc(-c4ccccc4)cn3C)nc12 [Roche-Dataset for PDE10A, Compound 74]"
15,711,"O=C(N[C@@H]1C[C@H]1c1ccccc1)c1nc(C2CC2)cnc1Nc1cncnc1 [Roche-Dataset for PDE10A, Compound 749]"
16,3.25,"CN(C)c1nc(CCc2nc(-c3ccccc3)cn2C)nc2ccc(Cl)cc12 [Roche-Dataset for PDE10A, Compound 55]"
17,40,"CN(C)C(=O)c1cnn(C)c1C(=O)Nc1ccn2cc(-c3cccc(Br)c3)nc2n1 [Roche-Dataset for PDE10A, Compound 319]"
18,692,"Cn1ncc(C(=O)N2CCC2)c1C(=O)Nc1cc2ccccn2n1 [Roche-Dataset for PDE10A, Compound 1147]"
19,1.82,"Cc1nc2ccccc2nc1CCc1nc(-c2ccccc2)cn1-c1ccccn1 [Roche-Dataset for PDE10A, Compound 17]"
20,131,"CN(C)c1cc(C(=O)Nc2ccn3nc(-c4ccccc4)nc3c2)cc(Cl)n1 [Roche-Dataset for PDE10A, Compound 167]"
21,397,"Cn1cc(C(=O)Nc2ccn3cc(-c4ccccc4)nc3n2)c(C(=O)NCc2ccccn2)n1 [Roche-Dataset for PDE10A, Compound 1029]"
22,33,"Cn1cc(NC(=O)c2nc(C3CC3)ccc2Nc2cncnc2)c(C(=O)N2CCC2)n1 [US8703768, 30]"

row,IC50 [nM],SMILES
1,10000,"Cn1ncc(C(=O)N2CCC2)c1C(=O)Nc1cc(C2CCC2)n[nH]1 [Roche-Dataset for PDE10A, Compound 1078]"
2,19,"O=C(Nc1ccn(C2CCCCC2)n1)c1nc(C2CC2)ccc1Nc1cncnc1 [Roche-Dataset for PDE10A, Compound 632]"
3,3350,"Cc1cc(NC(=O)c2ccc3cc(-c4ccccc4)nn3c2)on1 [Roche-Dataset for PDE10A, Compound 898]"
4,3190,"Cn1ncc(C(=O)N2CCC2)c1C(=O)Nc1cn(-c2cccc(C(F)(F)F)n2)cn1 [Roche-Dataset for PDE10A, Compound 802]"
5,2.07,"Cc1c(Cl)cc(OCC(=O)N2CCOCC2)c2nc(CCc3nc(N4CCCC4)nn3C)nn12 [Roche-Dataset for PDE10A, Compound 23]"
6,3.43,"O=C(Nc1ccnn1-c1ccccn1)c1nc(C2CC2)ccc1Nc1cncnc1 [Roche-Dataset for PDE10A, Compound 435]"
7,46,"Cn1ncc(C(=O)N2CCC2)c1C(=O)Nc1cn(-c2ccccn2)cn1 [Roche-Dataset for PDE10A, Compound 833]"
8,5.32,"COCc1ccc(Nc2cncnc2)c(C(=O)Nc2cccc(-c3ccn(C)n3)c2)n1 [Roche-Dataset for PDE10A, Compound 790]"
9,2.45,"Cn1ncc(C(=O)N2CCOCC2)c1C(=O)Nc1ccc2nc(N3CCCC3)nn2c1 [Roche-Dataset for PDE10A, Compound 415]"
10,52,"Cc1ccc(Nc2cncnc2)c(C(=O)Nc2ccn([C@]34C[C@H]5C[C@H](C[C@H](C5)C3)C4)n2)n1 [Roche-Dataset for PDE10A, Compound 610]"
11,392,"CN1CCN(c2nc3cc(NC(=O)c4c(C(=O)N5CCC5)cnn4C)ccc3s2)CC1 [Roche-Dataset for PDE10A, Compound 546]"
12,63,"CN(C)C(=O)c1nn(C)cc1C(=O)Nc1ccn2cc(-c3ccccc3)nc2n1 [Roche-Dataset for PDE10A, Compound 409]"
13,1.71,"O=C(Nc1cc(-c2ccccn2)nn1Cc1ccccc1)c1nc(C2CC2)ccc1Nc1cncnc1 [US8470820, 29]"
14,854,"CC(C)c1cc(NC(=O)c2c(C(=O)N3CCC3)cnn2C)n(C2CCCC2)n1 [Roche-Dataset for PDE10A, Compound 1042]"
15,28,"Cc1nc2cc(Cl)ccc2nc1OCc1nc(N2CCCC2)nn1C [Roche-Dataset for PDE10A, Compound 982]"
16,8340,"CN(c1cncnc1)c1ccc(C2CC2)nc1C(=O)N[C@@H]1CCN(c2ccc(Br)cn2)C1 [Roche-Dataset for PDE10A, Compound 95]"
17,2.11,"O=C(NCCc1cnc(-c2ccccc2)[nH]1)c1nc(C2CC2)ccc1Nc1cncnc1 [Roche-Dataset for PDE10A, Compound 102]"
18,976,"CN(C)c1nc2cc(NC(=O)c3c(C(=O)O)cnn3C)ccn2n1 [Roche-Dataset for PDE10A, Compound 768]"
19,392,"Cn1cc(-c2ccccc2)nc1CCNC(=O)c1cccn2cnnc12 [Roche-Dataset for PDE10A, Compound 182]"
20,331,"Cc1nc2nc(CCc3nc(-c4ccccc4)cn3C)[nH]c(=O)c2n1C [Roche-Dataset for PDE10A, Compound 687]"

# Source: BindingDB's records for doi:10.1007/s10822-022-00478-x (Roche Innovation Center Basel, F. Hoffmann-La Roche Ltd., 2022)
